Consider three compounds from PMC3479967 (Evidence-based Complementary and Alternative Medicine : eCAM, 2012).

Experiment [1] has as its target T1, UGT1A1 (Homo sapiens, UniProt P22309).
T1 sequence (P22309 26-533): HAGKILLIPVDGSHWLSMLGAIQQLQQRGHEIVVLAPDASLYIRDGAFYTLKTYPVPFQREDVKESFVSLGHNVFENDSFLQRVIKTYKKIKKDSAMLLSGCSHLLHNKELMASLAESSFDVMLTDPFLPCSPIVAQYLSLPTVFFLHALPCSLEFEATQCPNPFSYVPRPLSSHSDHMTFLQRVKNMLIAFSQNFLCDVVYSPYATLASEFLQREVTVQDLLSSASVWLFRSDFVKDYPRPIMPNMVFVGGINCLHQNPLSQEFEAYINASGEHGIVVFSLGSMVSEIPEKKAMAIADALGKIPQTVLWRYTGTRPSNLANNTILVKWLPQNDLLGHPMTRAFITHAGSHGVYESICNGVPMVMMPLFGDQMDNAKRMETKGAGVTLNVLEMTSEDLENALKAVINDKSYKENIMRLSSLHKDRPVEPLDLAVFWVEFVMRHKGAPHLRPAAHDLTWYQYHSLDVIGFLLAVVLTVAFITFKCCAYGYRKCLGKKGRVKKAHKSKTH
Put plainly: Inhibition of recombinant UGT1A1 activity (4-MU glucuronidation). The procedure:
(§1) A panel of recombinant human UGT supersomes (UGT1A1, UGT1A3, UGT1A4, UGT1A6, UGT1A7, UGT1A8, UGT1A9, UGT1A10, UGT2B4, UGT2B7, UGT2B15, and UGT2B17) expressed in baculovirus-infected insect cells were purchased from BD Gentest Corp. (Woburn, MA, USA).
(§2) 4-MU, a nonselective substrate of UGTs, was used as probe substrate for all UGTs except UGT1A4. Incubations with each individual enzyme were conducted using conditions previously described. There was a 5 min preincubation step at 37°C before the reaction was started by addition of UDPGA. The incubation mixtures were then centrifuged at 20,500 ×g for 15 min to obtain the supernatant. Aliquots (20 μL) were then analyzed by HPLC. The HPLC system (SHIMADZU, Kyoto, Japan) consisted of an SCL-10A system controller, two LC-10AT pumps, a SIL-10A auto injector, and a SPD-10AVP UV detector. Chromatographic separation was achieved using a Kromasil ODS column (4.6 × 150 mm I.D., 5 μm particle size) at a flow rate of 1 mL/min and UV detection at 316 nm. The mobile phase consisted of 10 mM KH2PO4, pH 2.7 (A) and acetonitrile (B). The following gradient was applied at a flow rate of 1 mL/min: 0–4 min 80% A and 20% B, 4.1–8 min 50% A and 50% B, 8.1–12 min, 30% A and 70% B. All experiments were performed in two independent experiments in duplicate.
(§3) A typical incubation mixture contained recombinant human UGTs, 5 mM MgCl2, 5 mM UDPGA, 50 μg/mg protein alamethicin, 50 mM Tris-HCl buffer (pH 7.4), and various probe substrates of UGTs in the absence or presence of different concentrations of inhibitors. […] The final concentration of DMSO in the incubation system was 1% (v/v). […]
(§4) Inhibition data from experiments were graphically represented by Dixon plots. K i values were calculated by nonlinear regression using the equations for competitive inhibition (1), noncompetitive inhibition (2), or mixed inhibition (3), [22] […] The type of inhibition was determined from the enzyme inhibition models. Goodness of fit to kinetic and inhibition models was assessed from the F statistic, r ^2 values, parameter standard error estimates, and 95% confidence intervals. […]

For experiment [2], the target named is T2, UGT2B4 (Homo sapiens, UniProt P06133).
T2 sequence (P06133 24-528): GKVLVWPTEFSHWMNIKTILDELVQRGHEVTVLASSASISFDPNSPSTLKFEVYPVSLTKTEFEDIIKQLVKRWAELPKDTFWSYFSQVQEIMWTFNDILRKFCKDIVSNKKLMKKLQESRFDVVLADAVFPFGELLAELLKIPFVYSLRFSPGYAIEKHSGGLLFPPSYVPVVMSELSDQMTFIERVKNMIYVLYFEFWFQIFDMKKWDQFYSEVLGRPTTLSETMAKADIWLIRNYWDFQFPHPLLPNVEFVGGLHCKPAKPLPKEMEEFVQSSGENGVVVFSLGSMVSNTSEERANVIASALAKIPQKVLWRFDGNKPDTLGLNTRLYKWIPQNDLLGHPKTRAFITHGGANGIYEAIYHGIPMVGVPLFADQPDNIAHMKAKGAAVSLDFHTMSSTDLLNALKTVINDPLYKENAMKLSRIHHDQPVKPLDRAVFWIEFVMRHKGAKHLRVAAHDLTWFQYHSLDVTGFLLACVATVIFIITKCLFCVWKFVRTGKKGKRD
Put plainly: Inhibition of recombinant UGT2B4 activity (4-MU glucuronidation). The procedure: as §1, §2, §3, §4

One may read the IC50 as the midpoint of a concentration-inhibition curve. On to `COc1ccc(-c2oc3c(CC=C(C)C)c(O[C@@H]4O[C@H](CO)[C@@H](O)[C@H](O)[C@H]4O)cc(O)c3c(=O)c2O[C@@H]2O[C@@H](C)[C@H](O)[C@@H](O)[C@H]2O)cc1` [Icariin], for which the IC50 in experiment [1] and in experiment [2] was > 100 µM throughout.
Regarding `COc1ccc(-c2oc3c(CC=C(C)C)c(O[C@@H]4O[C@H](CO)[C@@H](O)[C@H](O)[C@H]4O)cc(O)c3c(=O)c2O)cc1` [Icariside I], the IC50 in experiment [1] and in experiment [2] was > 100 µM in each case.
`COc1ccc(-c2oc3c(CC=C(C)C)c(O)cc(O)c3c(=O)c2O)cc1` [Icaritin]: the IC50 in experiment [1] and in experiment [2] was > 100 µM throughout.
